Results taken from patent publication US20030005484A1, “Microbiocidal and pesticidal aromatic aldehydes” (ProGuard, Inc., priority 1994, published 2003).

Tests used:
powdery mildew = powdery mildew on roses, disease rating / MPDC after foliar spray; type: in vivo, Sphaerotheca pannosa; details: for Mean % Disease Control, rose powdery mildew: single 100 ml foliar spray; for Mean Percentage of Disease Control (MPDC), powdery mildew: five week trial
Experimental: Each formulation is evaluated for its effect on specific pests and/or plant host using any of the compounds of formula (1) as well as other components of the formulation such as Tween 80 and/or sodium bicarbonate, with the combination and effective amount of each component adapted for a particular application to minimize toxicity while maintaining or increasing the antipathogenic effect of the formulation. The effective amount of each component may be determined by systematically varying the amount of that component in a test formulation, treating a plant of interest with the test formulation, and monitoring the level of pest infestation compared to an untreated control plant. An effective amount of a test component is identified as the amount that controls the growth of the pathogen on the plant host, thus reducing the disease rating of the plant. The mean percentage disease […] (MPDC) can be calculated for each particular application. MPDC is defined by the formula: [formula] Eight cultivars of rose were tested to investigate the effect of a cinnamic aldehyde/NaHCO3 formulation on rust and spores. The cultivars used included Moss unnamed (Moss), […], Rosette Delize (Hybrid Tea), Rosa Rugosa Rubra (Rugosa), Abel Morrison (Hybrid perpetual), John Laing, Betty Prior, and Rose de Roi. […] The Hybrid Tea and Hybrid perpetual were rated 3 and the Rugosa was rated 1. […] Control plants received no treatment. […] Moreover, the treatment appeared to have induced systemic resistance. […] Plants were an average of 0.86 m apart. […] Controls were untreated plants. […] Weekly reviews were made of the various plants. […] of infected rose in dedicated experimental rose gardens were used. Four Mrs. John Laing (Hybrid perpetual) and two Marchionese of Londonderry (Hybrid perpetual) rose plants were treated with one of two formulations of coniferyl aldehyde. […] The first two Mrs. […] Mrs. […] Both Marchionese of Londonderry plants (P5 and P6) were rated 5 for powdery mildew and rust after Paulus and Nelson (supra). Two treatment formulae were used for this trial. […] Control plants were sprayed with water alone. The change in the rating from pre-treatment to post-treatment was calculated as the mean percentage of disease control (MPDC) as described herein. A three treatment experiment with cinnamic aldehyde formula, coniferyl aldehyde formula and combined cinnamic and coniferyl aldehyde formula was carried out on field grown roses known to be susceptible to powdery mildew. The plants were blocked by variety before fungicide treatments and were randomized as to the plants. Two varieties were used in each of the three experiments described below. […] In experiment 3 Comte de Chambord (Portland) and Madame Pierre Oger (Bourbon) were used. In Experiment 1, the effect of cinnamic aldehyde alone and in combination with Tween 80 and/or NaHCO3 component was evaluated in experiment 2 the effect of coniferyl aldehyde alone and in combination with Tween 80 and/or NaHCO3 was evaluated and in experiment 3 a combination of cinnamic aldehyde and coniferyl aldehyde with Tween 80 and/or NaHCo3 was evaluated. […] See Table 3 for the treatment protocol; formula 1 was used for these experiments. […] Plants were evaluated using the Paulus/Nelson scale just prior to and four days after treatment. […] Moreover, cinnamic aldehyde, coniferyl aldehyde, Tween 80 and NaHCO3 are used in the food industry and there is likely to be little toxicological risk to the consumer or handler from any horticultural or food crop sprayed in this way. Similarly, as these chemicals leave no toxic residue, there is little chance of any detrimental effect on the wider environment, and their use is likely to be compatible with current biological control methods such as beneficial insects and/or microorganisms.

rust = rust (and spores) on roses, disease rating / MPDC after foliar spray; type: in vivo, Phragmidrium mucronatrum
Experimental: Each formulation is evaluated for its effect on specific pests and/or plant host using any of the compounds of formula (1) as well as other components of the formulation such as Tween 80 and/or sodium bicarbonate, with the combination and effective amount of each component adapted for a particular application to minimize toxicity while maintaining or increasing the antipathogenic effect of the formulation. The effective amount of each component may be determined by systematically varying the amount of that component in a test formulation, treating a plant of interest with the test formulation, and monitoring the level of pest infestation compared to an untreated control plant. An effective amount of a test component is identified as the amount that controls the growth of the pathogen on the plant host, thus reducing the disease rating of the plant. The mean percentage disease […] (MPDC) can be calculated for each particular application. MPDC is defined by the formula: [formula] Eight cultivars of rose were tested to investigate the effect of a cinnamic aldehyde/NaHCO3 formulation on rust and spores. The cultivars used included Moss unnamed (Moss), […], Rosette Delize (Hybrid Tea), Rosa Rugosa Rubra (Rugosa), Abel Morrison (Hybrid perpetual), John Laing, Betty Prior, and Rose de Roi. […] The Hybrid Tea and Hybrid perpetual were rated 3 and the Rugosa was rated 1. […] Control plants received no treatment. […] Moreover, the treatment appeared to have induced systemic resistance. […] Plants were an average of 0.86 m apart. […] Controls were untreated plants. […] Weekly reviews were made of the various plants. […] Six cultivars of infected rose in dedicated experimental rose gardens were used. Four Mrs. John Laing (Hybrid perpetual) and two Marchionese of Londonderry (Hybrid perpetual) rose plants were treated with one of two formulations of coniferyl aldehyde. […] The first two Mrs. […] Mrs. […] Both Marchionese of Londonderry plants (P5 and P6) were rated 5 for powdery mildew and rust after Paulus and Nelson (supra). Two treatment formulae were used for this trial. […] Control plants were sprayed with water alone. The change in the rating from pre-treatment to post-treatment was calculated as the mean percentage of disease control (MPDC) as described herein.

phylloxera Biotype A = assay: planter / field box vines, leaf spray, phylloxera population on roots; type: in vivo, Daktulosphaira vitifoliae; details: Chardonnay (2 treatments), two weeks
[1] = potted roses, ~100 ml foliar spray of 5 g cinnamic aldehyde, 80 g NaHCO3, 10 g Tween 80 per 1000 g, weekly saponin, observed 8 weeks

In the case of `O=C/C=C/c1ccccc1` [cinnamic aldehyde], the “Mean % Disease Control, rose powdery mildew” value (“Mean % Disease Control” below) (powdery mildew; aldehyde 5 g (mixture 2.5 g + 2.5 g) with NaHCO3 (80 g), four days) is reported as 56%, the “Mean % Disease Control” value (powdery mildew; aldehyde 5 g (mixture 2.5 g + 2.5 g) with T80 (10 g), four days) is reported as 44% and the “Mean % Disease Control” value (powdery mildew; aldehyde 5 g (mixture 2.5 g + 2.5 g) with T80 + NaHCO3 (formulas G, M, Q), four days) is reported as 94%. For the same compound, the “Mean % Disease Control” value (powdery mildew; aldehyde 5 g (mixture 2.5 g + 2.5 g), no additive, rated four days after treatment) was 50%, the “Mean Percentage of Disease Control (MPDC), powdery mildew” value (from here on “Mean Percentage … powdery mildew”) (powdery mildew; field rose Betty Prior, same single spray) was 64.3% and the “Mean Percentage … powdery mildew” value (powdery mildew; field rose John Laing, single spray 5 g cinnamic aldehyde, 10 g Tween 80, 80 g NaHCO3 per 1000 g) was 98.3%. For the same compound, the “Mean Percentage … powdery mildew” value (powdery mildew; field rose Rose de Roi, same single spray) was 100%, the “MPDC, powdery mildew, average for all three roses” value (powdery mildew; field roses John Laing, Betty Prior, Rose de Roi, same single spray) was 90.7% and the “time plants remained free of powdery mildew and rust” value (powdery mildew; potted or field roses sprayed to runoff with emulsion of cinnamic aldehyde and sodium bicarbonate, concomitantly saponin) was “up to 56 days”. The “powdery mildew after a single treatment” value (powdery mildew; [1]) was “eradicative”, the “Mean Percentage of Disease Control (MPDC), rust” value (rust; field rose Rose de Roi, same single spray, five week trial) was 85.0% and the “rust after a single treatment” value (rust; [1]) was “eradicative”. The “spores after a single treatment” value (rust; [1]) was “eradicative”, the “Number of phylloxera per root piece” value (phylloxera Biotype A; 1 K CNMA) was 637 and the “Number of phylloxera per root piece” value (phylloxera Biotype A; 10 K CNMA) was 102.
